IC50 data for two compounds are collected here from PMC7146753, “Self-Assembly, Nematic Phase Formation, and Organocatalytic Behavior of a Proline-Functionalized Lipopeptide” (ACS Applied Materials & Interfaces, 2020).

Usually IC50 stands for the midpoint of a concentration-inhibition curve. Low values mean higher potency, high ones lower potency.

The structures appear in SMILES notation. Where a SMILES comes first, the peptide text is derived from it. The star is where a group is joined. Palmitoyl = CCCCCCCCCCCCCCCC(=O)*; NHhexadecyl = CCCCCCCCCCCCCCCCN*

Test [1] deals with human dermal fibroblast (HDFa) cells. The following applies: 72 h.
The subject of test [2] is human breast cancer (MCF-7) cells. The following applies: 72 h.

Consider `CCCCCCCCCCCCCCCC(=O)N[C@H](C(=O)N[C@@H](CCCCN)C(=O)N1CCC[C@H]1C(=O)N[C@@H](CCC(=O)O)C(=O)N[C@@H](C)C(=O)N1CCC[C@H]1C(=O)O)[C@@H](C)CC` [C16-IKPEAP] (Palmitoyl-IKPEAP-OH), for which the concentration for half-maximal inhibition (IC50) in test [1] was found to be 390 µM; in test [2], 630 µM.

`CCCCCCCCCCCCCCCCNC(=O)[C@@H](NC(=O)[C@H](CCCCN)NC(=O)[C@@H]1CCCN1C(=O)[C@H](CCC(=O)O)NC(=O)[C@H](C)NC(=O)[C@@H]1CCCN1)[C@@H](C)CC` [PAEPKI-C16] (H-PAEPKI-NHhexadecyl): the figures for the IC50 in test [1] and in test [2] were 100 µM and 230 µM, respectively.
